Source: paper PMC9069370, “Integrated Design of a Membrane‐Lytic Peptide‐Based Intravenous Nanotherapeutic Suppresses Triple‐Negative Breast Cancer” (Advanced Science, 2022)
Counter-ions that a name gives are not always drawn. Like-named read-outs stand apart in the source and are kept apart here. Each block holds one molecule with its values, some of them ahead of it. Square brackets hold non-standard residues; d marks the D form. Peptide text beside a SMILES is read from it.

What was measured:
[1] = tested on: HMLER‐shEcad tumorspheres; experiment: cells; format: cell-based, human; conditions: for IC90: reducing tumorsphere cell viability by 90%, read-out: IC90 against HMLER‐shEcad tumorspheres
human red blood cells = experiment: Haemolysis (human red blood cells); format: cell-based; conditions: PBS, 37 °C, 1 h
Method: Fresh human red blood cells were obtained from Interstate Blood Bank, Inc., and thoroughly washed in PBS until the supernatant was clear. The peptide was serially diluted in PBS starting at a concentration of 200 µM. […] As a positive lysis control, 1% triton was used. […] After centrifugation, 10 µL of supernatant was transferred to 90 µL of ddH2O in a fresh 96‐well plate.

MCF‐10A = experiment: cells; format: cell-based, human; conditions: for IC50: non-cancerous cells, MTT, 72 h incubation, library peptides n = 2, D-enantiomers and small molecules replicated six times, read-out: IC50 (µM) MCF-10A
Source text: (§1) […], and MCF-10A cells were maintained in MEGM with supplements and growth factors bovine pituitary extract, hydrocortisone, human epidermal growth factor, insulin, and gentamicin/amphotericin-B.

various [2] = conditions: read-out: IC50 [µM], various; 2D and 3D tumorspheres; summary of Figures 2, 3 and 5
Source text: The final concentration of DMSO in each well was either 0.5% or 0% and this amount was present in the untreated control.

MCF‐10A mammospheres = experiment: Mammosphere viability assay (TOX8); format: cell-based, human
A549 = conditions: 2D; ref [68]; cited from earlier work
Source text: (§2) Table 1 ACP activity comparison. Reported in vitro anticancer activity (IC50) of ACPs | column: IC50 [µM]

tumor in mouse = conditions: dose: 25 mg kg^−1; ref [68]; cited from earlier work
Source text: (§3) Table 1 ACP activity comparison. Reported in vitro anticancer activity (IC50) of ACPs | column: Assay and Notes

various [3] = conditions: 2D; ref [70]; cited from earlier work
Source text: as §2

A20, AT84, MRC‐5 = conditions: ref [22], [23], [57], [63]; cited from earlier work
Source text: as §2

MCF‐7 = conditions: 2D; ref [11], [19], [47]; cited from earlier work
Source text: as §2

[4] = cited from earlier work
Source text: as §3

[5] = Tryptophan fluorescence and circular dichroism binding to vesicles; conditions: binding to both POPC and POPG vesicles; 50 µM peptide, 10 mM phosphate buffer, pH 7.0
Method: 50 µM ACP peptides and varied concentrations (concentrations: 0, 25, 50, 100, 150, 200, 250, 500, 1250, and 2500 µM) of POPC or POPC:POPG (3:1 ratio) large unilamellar vesicles were prepared in 10 mM phosphate buffer (pH 7.0). The solutions were measured after 1 h of incubation. Excitation was fixed at 280 nm (slit 9 nm) and emission was collected from 300 to 450 nm (slit 9 nm). The spectra were recorded using Cytation 5 Cell Imaging Multi‐Mode Reader from BioTek and were averaged by three scans.
Extended Data Figure 9 | Peptide-lipid interactions. Conformational change of tryptophan fluorescence quenching of 50 µM DHK peptide with titrated a, POPC or b, POPG LUV concentration (0, 12.5, 25, 50, […]
POPC or d, POPG LUV against elevated temperature (20, 45, 70, and 95 °C). The black solid line represents peptide-only in buffer at 20 °C. All the experiments were performed in 10 mM phosphate buffer, pH 7.0.
(1 picture or pasted object on this page, not shown here)

[6] = Tryptophan fluorescent binding assay; conditions: tryptophan fluorescence; 50 µM peptide, lipid titrated 0-5000 µM; phosphate buffered saline 1X, pH 7.4; values as lipid per peptide
Procedure, shortened: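 Peptides at 50 µM were incubated for 1 h with increasing amounts of 3:1 POPC:POPG unilamellar vesicles in 1X phosphate buffered saline, pH 7.4. Tryptophan emission (300–450 nm, excitation 280 nm) was recorded on a Cytation 5 multi-mode reader. The lipid concentration giving 50 % peptide binding was determined and reported as a lipid-to-peptide ratio.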

U2OS = format: cell-based, human; conditions: 2D culture, MTT, 72 h incubation; library peptides n = 2; D-enantiomers and small molecules replicated six times; read-out: IC50 (µM) U2OS
HMLER = experiment: cells; format: cell-based, human; conditions: 2D culture, MTT, 72 h incubation; library peptides average of two independent experiments (n = 2); D-enantiomers and small molecules replicated six times; read-out: IC50 (µM) HMLER
Source text: as §1

HMLER‐shEcad [7] = experiment: cells; format: cell-based, human; conditions: for IC50: 2D culture
Source text: as §1

HEK293T = experiment: cells; format: cell-based, human; conditions: non-cancerous cells; 2D culture, MTT, 72 h incubation; library peptides n = 2; D-enantiomers and small molecules replicated six times; read-out: IC50 (µM) HEK293T
[8] = ANTS/DPX liposome leakage assay; conditions: 0.5 mM vesicles, peptide 0-20 µM, 3 h incubation, lipid per peptide
Procedure, shortened: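 The value is the lipid-to-peptide ratio giving 50% ANTS/DPX release, with fluorescence (350/510 nm) read after 3 h and scaled to 10% Triton as full leakage. Peptides were titrated into 0.5 mM LUVs of POPC or 3POPC/1POPG (0.1 µm, free dye removed by gel filtration) in PBS at pH 7.4 or 4.8.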

HMLER‐shEcad [9] = experiment: Resistance formation after prolonged drug exposure, 2D culture; format: cell-based, human; conditions: for IC50: Homo sapiens
Method: Cancer stem cells can survive treatment, gain resistance, and reseed tumors, presenting a major challenge for chemotherapy.^[ [2] ^] […] Drugs were added with medium every 3–4 days, maintaining smooth cell growth, and 125 000 cells were split into new T25 flasks with a total volume of 5 mL once per week.

HCT116 = conditions: 2D; ref [69]; cited from earlier work
Source text: as §2

[10] = PBS 1X pH 7.4, high ratio = more potent

Molecule: CC(C)C[C@H](NC(=O)CN)C(=O)N[C@@H](CC(C)C)C(=O)N[C@@H](CCC(=O)O)C(=O)N[C@@H](CC(C)C)C(=O)N[C@@H](CC(C)C)C(=O)N[C@@H](CCC(=O)O)C(=O)N[C@@H](CC(C)C)C(=O)N[C@@H](CC(C)C)C(=O)N[C@@H](CC(C)C)C(=O)N[C@@H](CCCCN)C(=O)N[C@@H](C)C(=O)N[C@@H](C)C(=O)NCC(=O)N[C@@H](Cc1c[nH]c2ccccc12)C(N)=O [EEK] (H-GLLELLELLLKAAGW-NH2)
IC90 ([1]; 3D multicellular spheroids): 23 ± 3 µM
human red blood cell lysis (human red blood cells): only minimal human red blood cell lysis below 90 µM
IC50 (MCF‐10A; 2D culture): > 200 µM
IC50 (various [2]): 1 to 27 µM
IC90 against MCF‐10A mammospheres (MCF‐10A mammospheres; 3D non‐tumorigenic mammospheres): 141 ± 11 µM

Molecule: Magainin II
IC50 (A549): 45 µM
outcome in mouse xenograft model (tumor in mouse): 2D and mouse xenograft model (dose: 25 mg kg^−1); The tumor in mouse was smaller and still growing in 40 days

Molecule: Aurein 1.2
IC50 (various [3]): 10 to 100 µM

Molecule: LTX‐315
IC50 (A20, AT84, MRC‐5): 8 to 34 µM

Molecule: CC(C)[C@H](NC(=O)[C@H](CCCCN)NC(=O)[C@@H](NC(=O)[C@H](CCCCN)NC(=O)[C@@H](NC(=O)[C@H](CCCCN)NC(=O)[C@@H](NC(=O)[C@@H]1CCCN1C(=O)[C@H]1CCCN1C(=O)[C@@H](NC(=O)[C@H](CCCCN)NC(=O)[C@@H](NC(=O)[C@H](CCCCN)NC(=O)[C@@H](NC(=O)[C@H](CCCCN)NC(=O)[C@@H](NC(=O)[C@@H](N)CCCCN)C(C)C)C(C)C)C(C)C)C(C)C)[C@@H](C)O)C(C)C)C(C)C)C(=O)N[C@@H](CCCCN)C(N)=O [SVS‐1] (H-KVKVKVKV[dP]PTKVKVKVK-NH2; N-terminus and C-terminus assumed)
IC50 (MCF‐7): 11 µM
drug resistance note ([4]; ref [11], [19], [47]): 2D; in vitro drug resistance was observed

Molecule: CC(C)C[C@H](NC(=O)CN)C(=O)N[C@@H](CC(C)C)C(=O)N[C@@H](CC(=O)O)C(=O)N[C@@H](CC(C)C)C(=O)N[C@@H](CC(C)C)C(=O)N[C@@H](Cc1c[nH]cn1)C(=O)N[C@@H](CC(C)C)C(=O)N[C@@H](CC(C)C)C(=O)N[C@@H](CC(C)C)C(=O)N[C@@H](CCCCN)C(=O)N[C@@H](C)C(=O)N[C@@H](C)C(=O)NCC(=O)N[C@@H](Cc1c[nH]c2ccccc12)C(N)=O [DHK] (H-GLLDLLHLLLKAAGW-NH2)
HC50 (human red blood cells; one value for DHK, d‐DHK and d‐EEK together): 14 ± 5 µM
∆G binding [5]: -8.8 ± 1.2 kcal/mol
Lipid Concentration-induced 50% Peptide Binding (L/P), 3POPC/1POPG Vesicle [6]: 0.38 L/P
Lipid Concentration-induced 50% Peptide Binding (L/P), POPC Vesicle [6]: 0.20 L/P
IC50 (U2OS): 20.4 ± 2.05 µM
IC50 (HMLER): 1.75 ± 0.49 µM
IC50 (HMLER‐shEcad [7]; MTT, 72 h incubation, library peptides average of two independent experiments (n = 2), D-enantiomers and small molecules replicated six times, read-out: IC50 (µM) HMLER-shEcad): 1.02 ± 0.12 µM
IC50 (MCF‐10A; 2D culture): 5.05 ± 1.34 µM
IC50 (HEK293T): 7.3 ± 0.42 µM
Peptide Concentration-induced 50 % ANTS/DPX leakage at pH 4.8 (L/P), 3POPC/1POPG Vesicle ([8]; HCl-adjusted PBS 1X pH 4.8): 183 L/P
Peptide Concentration-induced 50 % ANTS/DPX leakage at pH 4.8 (L/P), POPC Vesicle ([8]; HCl-adjusted PBS 1X pH 4.8): 47 L/P
Peptide Concentration-induced 50 % ANTS/DPX leakage at pH 7.4 (L/P), 3POPC/1POPG Vesicle [8, 10]: 469 L/P
Peptide Concentration-induced 50 % ANTS/DPX leakage at pH 7.4 (L/P), POPC Vesicle [8, 10]: 747 L/P
shift in IC50 after prolonged exposure to ACP (HMLER‐shEcad [9]; 2D HMLER‐shEcad after 28 days co‐incubation with 0.4 µM d‐DHK): no shift in IC50

IC90 ([1]; Homo sapiens, 3D multicellular spheroids): 138 ± 11 µM
IC50 (HMLER‐shEcad [9]; 240 h, 2D HMLER‐shEcad after 10 days co‐incubation with 30 nM doxorubicin, read-out: IC50 of doxorubicin after prolonged doxorubicin exposure): 0.189 ± 0.068 µM
IC50 (HMLER‐shEcad [9]; 2D HMLER‐shEcad, vehicle, read-out: IC50 of doxorubicin, cells before/without doxorubicin exposure): 0.024 ± 0.002 µM
Molecule: COc1cccc2c1C(=O)c1c(O)c3c(c(O)c1C2=O)C[C@@](O)(C(=O)CO)C[C@@H]3O[C@H]1C[C@H](N)[C@H](O)[C@H](C)O1 [Doxorubicin, Doxorubicin hydrochloride, reference compound]
tumorsphere cell viability ([1]; HMLER‐shEcad tumorspheres, at 133 µM): > 15%
IC50 ([1]; Homo sapiens, 120 h, 3D multicellular spheroids, 5 days, TOX8 fluorescence read-out, read-out: IC50 against HMLER‐shEcad tumorspheres): 43 ± 6 µM
IC90 in 2D assay (HMLER‐shEcad [7]; 2D HMLER‐shEcad (Figure 3d,f), cells remained viable in the high micromolar range): could not be attained
IC50 (HMLER‐shEcad [7]; Homo sapiens, read-out: IC50, HMLER-shEcad cell viability, co-incubation with 5 µM z-VAD-FMK): 0.0477 ± 0.0026 µM
IC50 (HMLER‐shEcad [7]; Homo sapiens, read-out: IC50, HMLER-shEcad cell viability, co-incubation with 20 µM necrostatin-1): 0.0631 ± 0.0042 µM
IC50 (HMLER‐shEcad [7]; Homo sapiens, read-out: IC50, HMLER-shEcad cell viability, compound alone): 0.0031 ± 0.0004 µM
therapeutic window (fold IC50) in 2D assays (MCF‐10A; 2D assays): > 100 fold
selectivity for cancerous cells over non‐tumorigenic MCF‐10A (MCF‐10A; 2D culture, ratio of IC50): > 160 fold
IC90 against MCF‐10A mammospheres (MCF‐10A mammospheres): 167 ± 7 µM
therapeutic window (fold IC50) in the 3D assay (MCF‐10A mammospheres; 3D spheroid assay): ≈ 3 fold

Molecule: LL37
IC50 (HCT116): 40 µM
toxicity note ([4]; ref [69]): 2D; Vascular toxicity
